Measurements published in US20100144793A1, “NOVEL COMPOUNDS FOR THE TREATMENT OF DISEASES ASSOCIATED WITH AMYLOID OR AMYLOID-LIKE PROTEINS” (AC IMMUNE SA, priority 2006, published 2010).
Counter-ions that a name gives are not always drawn. Like-named read-outs stand apart in the source and are kept apart here.

What was measured:
Aβ1-42 = target: T1, Aβ1-42 (Homo sapiens, UniProt P05067); assay: Thioflavin T spectrofluorescence assay: inhibition of Aβ1-42 aggregation; format: biochemical
T1 construct: Aβ1-42 lyophilized powder (Bachem) was reconstituted in hexafluoroisopropanol (HFIP) to 1 mM; purchased Bachem
Method: (§1) The objective of this example was to evaluate the capacity of the compounds of the invention to inhibit the aggregation of (Aβ)1-42 peptide and to disaggregate pre-aggregated Aβ1-42 using a thioflavin T spectrofluorescence assay.
(§2) Aβ1-42 lyophilized powder (Bachem) was reconstituted in hexafluoroisopropanol (HFIP) to 1 mM. The peptide solution was sonicated for 15 min at room temperature, agitated overnight, and aliquots were placed into non-siliconized microcentrifuge tubes. The HFIP was then evaporated under a stream of argon. The resulting peptide film was dried under vacuum for 10 min, tightly sealed and stored at −80° C. until used.
Aβ1-42 peptide film was dissolved in DMSO to reach 400 μM. Assay solution in PBS was prepared in non-siliconized incubation tubes to reach the following concentrations: 330 μM small molecule, 33 μM Aβ1-42, 10 μM thioflavin T (ThT), and 12.8% DMSO. Therefore, the final molar ratio of small molecule to Aβ1-42 was 10:1. A positive control without a small molecule was prepared to measure maximum RFU. A negative control without Aβ1-42 was prepared for each small molecule. 3-aminopyrazole trimer (Trimer) was tested in all assays to ascertain reproducibility between independent experiments. The solutions were then incubated for 24 h at 37° C., and the spectrofluorescence (relative fluorescence units; RFU) read in six replicates in black 384-well assay plates (Perkin-Elmer) on a Perkin-Elmer FluoroCount spectrofluorometer. Inhibition of aggregation is expressed as mean % inhibition±1 standard deviation (SD) according to the following equation: […]

preformed Aβ1-42 fibers = target: T2, preformed Aβ1-42 fibers (Homo sapiens, UniProt P05067); assay: Thioflavin T spectrofluorescence assay: disaggregation of preformed Aβ1-42 fibers; format: biochemical; details: Table 5; 330 μM small molecule, 10:1 molar ratio to pre-aggregated Aβ1-42, additional 24 h at 37° C.; mean ± SD of two independent experiments
T2 construct: Aβ1-42 lyophilized powder (Bachem) was reconstituted in hexafluoroisopropanol (HFIP) to 1 mM; purchased Bachem
Method: as §1, §2
This solution was then allowed to aggregate at 37° C. for 24 h after which a small molecule and ThT were added to obtain a final concentration of 330 μM small molecule and 10 μM ThT. […] This solution was then incubated for additional 24 h at 37° C. The spectrofluorescence was then measured and % disaggregation calculated. Disaggregation is expressed as mean % disaggregation±1 standard deviation (SD) according to the same equation as for the inhibition of aggregation.

[1] = target: T3, Oregon Green labeled Aβ(1-42) (Homo sapiens, UniProt P05067); assay: FCS-assay with 5 nM Oregon Green labeled Aβ-peptide (disaggregation of preformed aggregates); format: biochemical
T3 construct: DMSO-stock solutions of Oregon Green labeled Aβ(1-42) 1:1 with deionized water
Method: In order to analyse the disaggregating properties of the compounds, preformed aggregates were used, which were induced straight before the FCS-measurement by diluting low concentrated (500 nM) DMSO-stock solutions of Oregon Green labeled Aβ(1-42) 1:1 with deionized water. The final concentration of Oregon Green labeled Aβ-peptide was 5 nM in 1×PBS and 3% DMSO.
To improve the reproducibility of the measurements of the concentration dependencies all samples were prepared fourfold.

[2] = Table 3, 10:1 small molecule to Aβ1-42 molar ratio, 24 h at 37° C., mean ± SD of two independent experiments, read-out: % Inhibition
[3] = read-out: Percentage of the “number of peaks” value compared to the control reaction without added ligand
[4] = read-out: Percentage of the “peaks × height“ value compared to the control reaction without added ligand

T3 sequence (P05067 672-713 limits assumed): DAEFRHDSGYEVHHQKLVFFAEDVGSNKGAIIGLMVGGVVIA
T2 sequence (P05067 672-713 limits assumed): as above
T1 sequence (P05067 672-713 limits assumed): as above

inhibition at 330 µM (Aβ1-42; [2])	SMILES	melting point	also measured
–	c1ccc(-c2cc(NCCNc3cc(-c4ccccn4)[nH]n3)n[nH]2)nc1 (as salt: hydrochloride) [Compound 1al, N^1,N^2-bis(5-(Pyridin-2-yl)-1H-pyrazol-3-yl)ethane-1,2-diamine tetra-hydrochloride]	> 250 °C	–
–	c1ccc(-c2ccc(-c3cc(NCCNc4cc(-c5ccc(-c6ccccc6)cc5)[nH]n4)n[nH]3)cc2)cc1 (as salt: hydrochloride) [Compound 1am, N^1-(5-(Biphenyl-4-yl)-1H-pyrazol-3-yl)-N^2-(3-(biphenyl-4-yl)-1H-pyrazol-5-yl)ethane-1,2-diamine bishydrochloride]	220 to 222 °C	–
–	Cc1ccc(-c2cc(NCC(C)(C)CNc3cc(-c4ccc(C)cc4)[nH]n3)n[nH]2)cc1 (as salt: hydrochloride) [Compound 1an, dihydrochloride]	151 °C	–
–	Cc1ccc(-c2cc(NCc3cccc(CNc4cc(-c5ccc(C)cc5)[nH]n4)c3)n[nH]2)cc1 (as salt: hydrochloride) [Compound 1ao, N,N′-(1,3-Phenylenebis(methylene))bis(5-p-tolyl-1H-pyrazol-3-amine) dihydrochloride]	183 °C	–
–	Cc1ccc(-c2cc(NCc3ccc(CNc4cc(-c5ccc(C)cc5)[nH]n4)cc3)n[nH]2)cc1 (as salt: hydrochloride) [Compound 1ap, N,N′-(1,4-Phenylenebis(methylene))bis(5-p-tolyl-1H-pyrazol-3-amine) dihydrochloride]	184 °C	–
–	c1ccc(-c2cc(NCCNc3cc(-c4ccccc4)[nH]n3)n[nH]2)cc1 (as salt: hydrochloride) [Compound 1e, N^1,N^2-bis(5-Phenyl)-1H-pyrazol-3-yl)ethane-1,2-diamine bishydrochloride]	204 °C	–
–	Clc1ccc(-c2cc(NCCNc3cc(-c4ccc(Cl)cc4)[nH]n3)n[nH]2)cc1 (as salt: hydrochloride) [Compound 1f, N^1,N^2-bis(5-(4-Chlorophenyl)-1H-pyrazol-3-yl)ethane-1,2-diamine bishydrochloride]	195 °C	–
–	c1csc(-c2cc(NCCNc3cc(-c4cccs4)[nH]n3)n[nH]2)c1 (as salt: hydrochloride) [Compound 1h, N^1,N^2-bis(5-(2-Thienyl)-1H-pyrazol-3-yl)ethane-1,2-diamine bishydrochloride]	147 °C	–
–	c1c(NCCNc2cc(C3CC3)[nH]n2)n[nH]c1C1CC1 (as salt: hydrochloride) [Compound 1i, N^1,N^2-bis(5-Cyclopropyl-1H-pyrazol-3-yl)ethane-1,2-diamine bishydrochloride]	205 to 206 °C	–
–	c1ccc(Cc2cc(NCCNc3cc(Cc4ccccc4)[nH]n3)n[nH]2)cc1 (as salt: hydrochloride) [Compound 1l, N^1,N^2-bis(5-Benzyl-1H-pyrazol-3-yl)ethane-1,2-diamine dihydrochloride]	177 to 178 °C	–
–	c1coc(-c2cc(NCCNc3cc(-c4ccco4)[nH]n3)n[nH]2)c1 (as salt: hydrochloride) [Compound 1m, N^1,N^2-bis(5-(2-Furyl)-1H-pyrazol-3-yl)ethane-1,2-diamine bishydrochloride]	214 to 216 °C	–
–	Clc1ccc(-c2c[nH]nc2NCCNc2n[nH]cc2-c2ccc(Cl)cc2)cc1 (as salt: hydrochloride) [Compound 1s, N^1,N^2-bis(4-(4-Chlorophenyl)-1H-pyrazol-3-yl)ethane-1,2-diamine bishydrochloride]	228 °C	–
–	c1[nH]nc(NCCNc2n[nH]cc2C2CC2)c1C1CC1 (as salt: hydrochloride) [Compound 1v, N^1,N^2-bis(4-Cyclopropyl-1H-pyrazol-3-yl)ethane-1,2-diamine bishydrochloride]	178 to 182 °C (dec.)	–
50.4 ± 0.9%	Cc1ccc(-c2cc(NCC(=O)Nc3cc(-c4cccs4)[nH]n3)n[nH]2)cc1 [Compound 1aa, N-(5-(Thiophen-2-yl)-1H-pyrazol-3-yl)-2-(5-p-tolyl-1H-pyrazol-3-ylamino)acetamide]	246 °C	–
–	Cc1ccc(-c2cc(NCCNc3cc(-c4cccs4)[nH]n3)n[nH]2)cc1 [Compound 1ab, N-(5-(Thiophen-2-yl)-1H-pyrazol-3-yl)-N′-(5-p-tolyl-1H-pyrazol-3-yl)ethane-1,2-diamine bishydrochloride]	–	inhibition at 330 µM (Aβ1-42; 24 h): 85 ± 8.6%; % disaggregation (preformed Aβ1-42 fibers): 78.0 ± 4.5%; remaining activity at 0.01 µM [1, 3]: 55.6%; remaining activity at 0.1 µM [1, 3]: 54.2%; remaining activity at 0.01 µM [1, 4]: 27%; remaining activity at 0.1 µM [1, 4]: 51.4%
12.4 ± 5.1%	Cc1ccc(-c2cc(NCC(=O)Nc3cc(-c4ccc(Cl)cc4)[nH]n3)n[nH]2)cc1 [Compound 1ac, N-(5-(4-Chlorophenyl)-1H-pyrazol-3-yl)-2-(5-p-tolyl-1H-pyrazol-3-ylamino)acetamide]	257 °C	–
55 ± 11.9%	Cc1ccc(-c2cc(NC(=O)CNc3cc(-c4ccc(Cl)cc4)[nH]n3)n[nH]2)cc1 [Compound 1ad, 2-(5-(4-Chlorophenyl)-1H-pyrazol-3-ylamino)-N-(5-p-tolyl-1H-pyrazol-3-yl)acetamide]	251 °C	–
–	Cc1ccc(-c2cc(NCCNc3cc(-c4ccc(Cl)cc4)[nH]n3)n[nH]2)cc1 [Compound 1ae, N-(5-(4-Chlorophenyl)-1H-pyrazol-3-yl)-N′-(5-p-tolyl-1H-pyrazol-3-yl)ethane-1,2-diamine bishydrochloride]	–	inhibition at 330 µM (Aβ1-42; 24 h): 83.7 ± 1.7%; % disaggregation (preformed Aβ1-42 fibers): 76.0 ± 2.1%; remaining activity at 0.01 µM [1, 3]: 72.3%; remaining activity at 0.1 µM [1, 3]: 59.8%; remaining activity at 0.2 µM [1, 3]: 45.5%; remaining activity at 0.01 µM [1, 4]: 65.5%; remaining activity at 0.1 µM [1, 4]: 60.4%; remaining activity at 0.2 µM [1, 4]: 53.1%
37.6 ± 10.4%	O=C(CNc1cc(-c2cccs2)[nH]n1)Nc1cc(-c2ccc(Cl)cc2)[nH]n1 [Compound 1af, 2-(5-(Thiophen-2-yl)-1H-pyrazol-3-ylamino)-N-(5-(4-chlorophenyl)-1H-pyrazol-3-yl)acetamide]	233 °C	–
20.8 ± 5.7%	O=C(CNc1cc(-c2ccc(Cl)cc2)[nH]n1)Nc1cc(-c2cccs2)[nH]n1 [Compound 1ag, N-(5-(Thiophen-2-yl)-1H-pyrazol-3-yl)-2-(5-(4-chlorophenyl)-1H-pyrazol-3-ylamino)acetamide]	257 °C	–
–	COc1ccc(-c2cc(NCCNc3cc(-c4ccc(OC)cc4)[nH]n3)n[nH]2)cc1 [Compound 1g, N^1,N^2-bis(5-(4-Methoxyphenyl)-1H-pyrazol-3-yl)ethane-1,2-diamine bishydrochloride]	–	inhibition at 330 µM (Aβ1-42; 24 h): 68.2 ± 7.7%; % disaggregation (preformed Aβ1-42 fibers): 66.6 ± 4.2%
35.9 ± 4.7%	Cc1ccc(-c2cc(NCC(=O)Nc3cc(C)[nH]n3)n[nH]2)cc1 [Compound 1x, N-(5-Methyl-1H-pyrazol-3-yl)-2-(5-p-tolyl-1H-pyrazol-3-ylamino)acetamide]	180 °C	–
30.7 ± 3.8%	Cc1ccc(-c2cc(NCC(=O)Nc3cc(-c4ccc(C)cc4)[nH]n3)n[nH]2)cc1 [Compound 1y, N-(5-p-Tolyl-1H-pyrazol-3-yl)-2-(5-p-tolyl-1H-pyrazol-3-ylamino)acetamide]	238 °C	–
22.1 ± 12.5%	Cc1ccc(-c2cc(NC(=O)CNc3cc(-c4cccs4)[nH]n3)n[nH]2)cc1 [Compound 1z, 2-(5-(Thiophen-2-yl)-1H-pyrazol-3-ylamino)-N-(5-p-tolyl-1H-pyrazol-3-yl)acetamide]	227 °C	–
